Square brackets hold non-standard residues; d marks the D form. Peptide text beside a SMILES is read from it. * marks the point of attachment. Sta = CC(C)C[C@H](N)[C@@H](O)CC(=O)O; Isovaleryl = CC(C)CC(=O)*; Nle = CCCC[C@H](N)C(=O)O; Nva = CCC[C@H](N)C(=O)O; Cbz = O=C(OCc1ccccc1)*; CH2F = FC*
Tests used:
[1] = tested on: axons of cultured neurons; experiment: Induction of axon degeneration by cytoskeleton-disrupting agent; type: cell-based
Source text: Thus, among the three major polymer components of the axon cytoskeleton, microtubules play a particularly important role in maintaining the integrity of axons. Consistent is the observation of microtubule disruption as the earliest detectable change during the physiological process of axon pruning in Drosophila metamorphosis (Watts et al., 2003).

[2] = tested on: corticospinal tract (CST) after midthoracic spinal cord transection with human Schwann cell grafts; experiment: Corticospinal Tract (CST) Regeneration Assay; type: in vivo, adult nude rat; design: key: dramatically reduce (+++ or ++++) axonal degeneration; dramatically reduce (+++ or ++++) axonal degeneration; settings: inhibitor in fibrin glue; thirty-five days after grafting
Method: Corticospinal Tract (CST) Regeneration Assay. Proteasome inhibitors are assayed for their ability to improve corticospinal tract (CST) regeneration following thoracic spinal cord injury by promoting CST regeneration into human Schwann cell grafts in the methods of Guest et al. (1997, supra). […] Inhibitors are incorporated into a fibrin glue and placed in the same region. Anterograde tracing from the motor cortex using the dextran amine tracers, Fluororuby (FR) and biotinylated dextran amine (BDA), are performed. Thirty-five days after grafting, the CST response is evaluated qualitatively by looking for reduced degeneration of CST fibers in or beyond grafts and quantitatively by constructing camera lucida composites to determine the sprouting index (SI), the position of the maximum termination density (MTD) rostral to the GFAP-defined host/graft interface, and the longitudinal spread (LS) of bulbous end terminals. The latter two measures provide information about axonal die-back.

[3] = tested on: transected axons from cultured sympathetic neurons; experiment: Wallerian degeneration of transected axons in cultured sympathetic ganglia; type: cell-based, rat; design: development of the axonal beading appearance / disintegration of transected axons into debris: dose or concentration left out as unconfirmed; settings: for protective effect on Wallerian degeneration: added to sympathetic cultures prior to axotomy, EGTA 2 mM; for time post-axotomy until degeneration is shown: untreated transected axons: early signs 8 hr post-axotomy
Source text: Inhibiting the ubiquitin-proteasome pathway delays Wallerian degeneration. Wallerian degeneration in most transected mammalian nerve fibers is a complex sequence that entails degradation of the axon, changes in the ensheathing and glial cells, alterations in the blood-tissue barriers, and responses of macrophage-lineage cells (reviewed by Griffin et al., 1995). To study the underlying mechanisms involved in the axon degeneration process, we have used the degeneration of transected axons from cultured primary neurons as models (Buckmaster et al., 1995; George et al., 1995; Wang et al., 2001). In cultured sympathetic ganglia derived from postnatal day 3 (p3) rats, soma-deprived axons undergo a typical degenerative process (herein, George et al., 1995; Wang et al., 2001). The severed axons first appear normal for 6-10 hr, depending upon the duration of culturing prior to axotomy. For sympathetic ganglia that have been cultured for 5 days, the severed axons begin to develop such signs of early degeneration as focal swelling and beading approximately 8 hrs after the axons had been separated from their cell bodies. In most cases, the axons would be completely degenerated and detached after 12-16 hr post-axotomy. Similar degenerative processes were also observed in other types of cultured neurons, such as chicken dorsal root ganglion neurons and retinal ganglion cells.
We examined whether UPS is involved in axotomy-triggered Wallerian degeneration by using specific pharmacological inhibitors. It is known that for UPS to degrade a specific substrate protein, the sequential action of three enzymes, including a ubiquitin activating enzyme (E1), a ubiquitin conjugating enzyme (E2), and a ubiquitin ligase (E3), is required to covalently link ubiquitin to the substrate. Poly-ubiquitinated proteins are then targeted for degradation by the 26S proteasome, which is composed of two 19S proteasome regulatory particles and a 20S core. Substrate ubiquitination may also be reversed by ubiquitin proteases (reviewed by Weissman, 2001). In spite of the existence of multiple E2 and E3 molecules, the final and common step in degrading polyubiquitinated protein substrates is through the 26S proteasome machinery. Consistent with previous evidence for the existence and functioning of the UPS in axons (Campbell and Holt, 2001, 2003), components of UPS machinery, such as subunit C2 of the proteasome 20S, were found in both intact and transected axons from sympathetic neurons. Thus, to perturb UPS activity we used two mechanistically different proteasome inhibitors, MG132, a peptide-based reversible proteasome inhibitor (Rock et al., 1994), and lactacystin, a […] irreversible proteasome inhibitor (Fenteany et al., 1995), both of which had been extensively used to inhibit UPS activity in many different cell types including cultured neurons (Campbell and Holt, 2001, 2003).
24 hr post-axotomy when most of the axon debris has detached from the culture surface in control cultures, proteasome inhibitor-treated explants still retained many axons with some degeneration signs, which remained up to 36 hr post-axotomy.
8 hr post-axotomy, approximately 90% of axons from control HSV-infected explants, and only about 40% of axons from HSV-UBP2-infected ones, developed a beading appearance. However, the protective effects of UBP2 overexpression were less robust than those of the proteasome inhibitors, presumably due to the low expression levels of UBP2.
As previous studies have implicated calpains, a class of calcium-dependent proteases, in Wallerian degeneration (George et al., 1995; Finn et al., 2000), we also examined the contribution of calpain activity in our assays with specific calpain inhibitors such as ALLN (Finn et al., 2000). […] 16 hr after axotomy when most of the transected axons from control cultures degenerated into debris, there were still remaining axon fibers in ALLN-treated cultures.

[4] = tested on: axons of cultured neurons; experiment: Axon degeneration elicited by calcium ionophore A23187 or ionomycin; type: cell-based
[5] = tested on: microtubules and neurofilaments of transected axons; experiment: Breakdown of axonal cytoskeleton (microtubules, neurofilaments) in transected axons, immunostaining and Western blotting; type: cell-based, rat
Source text: Microtubule destabilization at the initiation stage of Wallerian degeneration in vitro. We next examined which cellular events might correlate with the involvement of UPS and calpains in Wallerian degeneration. We monitored the integrity of different subcellular organelles in the transected axons by both immunocytochemistry and membrane labeling. […] At the protein level, we observed a corresponding cleavage of the neurofilament subunits, neurofilament 160 (NF-160) and neurofilament 68 (NF68) as detected by Western blotting.
Apart from these axonal markers, however, the earliest detectable change appears to occur in the microtubules of transected axons. […] After 12 hr post-axotomy, the stained signals of fragmented microtubule structures weakened gradually and were replaced by many spheroid bodies in severed axons. By 16 hr after axotomy, almost all of the detected signals were spheroid bodies along the tracts of original axons. Even 16 hrs after axotomy when the majority of the axonal NF160 and NF68 has been degraded, most of the tubulin proteins still remained intact and the protein level remained stable according to Western blotting. To provide additional biochemical evidence for such an axotomy-elicited microtubule destabilization in transected axons at early stages of Wallerian degeneration, we separated monomeric (soluble, S) and polymerized (pellet, P) tubulins from transected axons and measured the depolymerization ratio (S/[S+P]) at different time points.
UPS and calpains mediate the breakdown of axonal cytoskeleton components. To explore the link between these cellular and molecular changes during Wallerian degeneration, we next examined whether proteasome inhibitors, calpain inhibitors, and EGTA affect neurofilaments and microtubules in transected axons. […] On the other hand, ALLN only delayed neurofilament degradation, but not the fragmentation of microtubules.

[6] = tested on: transected optic nerve; experiment: Wallerian degeneration of transected optic nerve in vivo (gelfoam at lesion site); design: species or system mice; settings: gelfoam pre-soaked with 50 mM MG132; 3 days post-axotomy; immunostaining
Source text: MG132 slows down Wallerian degeneration of transected optic nerve in vivo. To assess whether these observations from in vitro culture experiments hold true in vivo, we first performed immunostaining experiments to examine the alterations of microtubules and neurofilaments in transected optic nerves. […] In optic nerves 3 days after axotomy when an antibody against NF160 still detected many linear neurofilament fibers, the antibody against a neuron specific b-tubulin detected largely spheroid bodies, reminiscent of the microtubule changes observed in vitro 16 hr post-axotomy. […] To examine whether proteasome inhibitors would retard Wallerian degeneration in vivo, we applied gelfoams pre-soaked with vehicle (PBS) or MG132 to the lesion sites and examined the transected optic nerves 3 days post-axotomy by immunostaining. Our experimental procedures were adapted from Meyer et al. (1994). In brief, adult mice were anesthetized by an intraperitoneal injection of ketamine (100 mg/kg) and xylazine (20 mg/kg). An incision was then made in the conjunctiva above the left orbit. The optic nerve was exposed under an operating microscope, and its dura opened longitudinally. […] At determined days after nerve crush, the animals were given a lethal dose of anesthesia and perfused through the heart with cold saline plus heparin followed by 4% paraformaldehyde. […]

[7] = tested on: NGF-deprived sympathetic neurons; experiment: Neurite degeneration in NGF-deprived sympathetic neurons; type: cell-based; settings: 36 hr after NGF deprivation; for death of cell bodies after NGF deprivation: Hoechst 33258 nuclei staining
Source text: Proteasome inhibitors also delay neurite degeneration in NGF-deprived sympathetic neurons. In addition to transected axons, axons from neurons that have been deprived of their physiological trophic factors may also undergo a Wallerian-like degeneration process (reviewed by Raff et al., 2002). If the distal part of an axon of a cultured sympathetic neuron is locally deprived of NGF, that part of the axon degenerates while the rest of the cell and axon survives (Campenot, 1982). Moreover, it has been shown that such an NGF deprivation-triggered axon degeneration is delayed in the sympathetic neurons from Wld^s mice (Deckwerth and Johnson, 1994). We thus decided to investigate whether UPS is also involved in NGF deprivation-triggered axon degeneration. Consistent with previous studies (for example, Deckwerth and Johnson, 1994), 36 hr after NGF deprivation, all of the cultured sympathetic neurons underwent a typical apoptosis program with death of cell bodies as detected by nuclei staining with Hoechst 33258 (a few normally stained nuclei are glial cells) and degeneration of axons as indicated by both morphological criteria and immunostaining.

C/C1=C/C(=O)O[C@@H]2C[C@@H](CC[C@H](C)/C=C\CC1)O[C@@](O)([C@@H]1CSC(=O)N1)C2 [latrunculin B]
induction of axon degeneration [1]: failed to induce axon degeneration

CC(C)C[C@H](NC(=O)[C@H](Cc1ccccc1)NC(=O)c1cnccn1)B(O)O [PS-341, bortezomib]
Reduce Degeneration [2]: ++++

CC(C)C(O)C12NC(=O)C(C)(C)C1OC2=O (stereo not drawn) [α-Methylomuralide, α-Methyl clasto-Lactacystin β-Lactone]
Reduce Degeneration [2]: ++++

CCC[C@@H](C=O)NC(=O)[C@H](CC(C)C)NC(=O)[C@H](CC(C)C)NC(=O)OCc1ccccc1 [MG-115, Carbobenzoxy-L-leucyl-L-leucyl-L-norvalinal] (Cbz-Leu-Leu-[Nva]-aldehyde)
Reduce Degeneration [2]: ++++

O=C(O)CN(CCOCCOCCN(CC(=O)O)CC(=O)O)CC(=O)O [EGTA]
protective effect on Wallerian degeneration [3]: much stronger protective effect | axon degeneration elicited by calcium ionophore A23187 or ionomycin [4]: blocked | degeneration of all examined subcellular markers (destabilization of microtubules and cleavage of neurofilaments) ([5]; transected axons): profoundly retarded

CC(=O)N[C@@H](CSC(=O)[C@]1([C@@H](O)C(C)C)NC(=O)[C@H](C)[C@@H]1O)C(=O)O [Lactacystin]
time post-axotomy until degeneration is shown [3]: 16 h | degeneration of all examined subcellular markers (destabilization of microtubules and cleavage of neurofilaments) ([5]; transected axons): profoundly retarded | Reduce Degeneration [2]: +++

CC(C)C[C@@H](C=O)NC(=O)[C@H](CC(C)C)NC(=O)[C@H](CC(C)C)NC(=O)OCc1ccccc1 [MG-132, Carbobenzoxy-L-leucyl-L-leucyl-L-leucinal] (Cbz-Leu-Leu-Leu-aldehyde)
time post-axotomy until degeneration is shown [3]: 16 h | degeneration of all examined subcellular markers (destabilization of microtubules and cleavage of neurofilaments) ([5]; transected axons): profoundly retarded | breakdown of microtubules, neurofilaments and axolemma in transected optic nerves [6]: significantly slowed | axon (neurite) degeneration after NGF deprivation [7]: the majority of the axons were still intact | death of cell bodies after NGF deprivation [7]: still showed clear apoptotic staining | Reduce Degeneration [2]: +++

CCCC[C@@H](C=O)NC(=O)[C@H](CC(C)C)NC(=O)[C@H](CC(C)C)NC(C)=O [MG-101, Ac-Leu-Leu-Nle-CHO] (Ac-Leu-Leu-[Nle]-aldehyde)
development of the axonal beading appearance [3]: did not affect | disintegration of transected axons into debris ([3]; 16 hr after axotomy): slightly delayed | calpain-dependent degradation of neurofilaments NF160 and NF68 ([5]; Western blotting): completely prevented | neurofilament degradation ([5]; transected axons): only delayed | Reduce Degeneration [2]: +++

COC(=O)C[C@H](NC(=O)[C@H](C)NC(=O)[C@@H](NC(=O)OCc1ccccc1)C(C)C)C(=O)CF [Z-VAD-fmk] (Cbz-Val-Ala-Asp(OMe)-CH2F)
protective effect on Wallerian degeneration [3]: did not result in any detectable protective effect | axon (neurite) degeneration after NGF deprivation [7]: efficiently prevented | death of cell bodies after NGF deprivation [7]: efficiently prevented

CC(C)CC(=O)N[C@H](C(=O)N[C@H](C(=O)N[C@@H](CC(C)C)[C@@H](O)CC(=O)N[C@@H](C)C(=O)N[C@@H](CC(C)C)[C@@H](O)CC(=O)O)C(C)C)C(C)C [pepstatin.A] (Isovaleryl-VV[Sta]A[Sta]-OH)
protective effect on Wallerian degeneration [3]: did not result in any detectable protective effect

CC(C)C[C@H](NC(=O)[C@H](CC(C)C)NC(=O)[C@H](CC(C)C)NC(=O)OCc1ccccc1)B(O)O [MG-262, Z-Leu-Leu-Leu-B(OH)2]
Reduce Degeneration [2]: +++

CC(C)[C@H](O)[C@@]12NC(=O)[C@H](C)[C@@H]1OC2=O [PS-519, clasto-Lactacystin β-Lactone]
Reduce Degeneration [2]: ++++

Reference: patent publication US7238659B2, “Reducing axon degeneration with proteasome inhibitors” (Children's Medical Center Corporation, priority 2003, dated 2007)
